Data on nine molecules can be found in EP0609437B1, “NOVEL SPHINGOGLYCOLIPID AND USE THEREOF” (KIRIN BEER KABUSHIKI KAISHA, priority 1991, dated 1993).

The subject of series [1] is spleen cells of C57BL/6 mouse and pancreatic cells of BALB/c mouse. In words: Lymphocyte mixed culture reaction (mouse MLR), uptake of 3H-TdR. In kind it is cell-based. The note with it: for activity at 1 µg/mL / activity at 0.1 µg/mL / activity at 0.01 µg/mL: Mus musculus, Lymphocyte, read-out: Uptake of ^3H-TdR (% of control). Here is the method: Experiment was carried out with the spleen cells of C57BL/6 mouse which had been treated with mitomycin C (50 µg/ml, 30 min) as the stimulator and with the […] cells of BALB/c mouse as the responder. These […] cells were suspended to a concentration of 2 × 10^6 cells/ml with a culture medium of 10% FCS RPMI 1640, respectively. These cells (50 µl/well) and a sample (10 µl/well) were plated in a 96 well round-bottomed plate and cultured for 42 hours* under the condition of 37°C and 5% CO2. ^3H-thymidine (^3H-TdR) was added in a dose of 0.5 µCi/well. After 8 hours, the cells were harvested and subjected to the measurement of the uptake of ^3H-TdR by a liquid scintillation counter.
*The samples of the compounds 32, 33 and 34 were cultured for 4 days.

Series [2] can be described thus: Acute toxicity, single intravenous administration. In kind it is in vivo. To be noted: rat, in vivo; single intravenous dose, male Crj:CD rats, observed for 7 days. Here is the method:
(§1) The compound 5 was once administered intravenously in doses of 0.1, 1.0 and 10 mg/kg to the groups of 6 male Crj:CD rats (5 weeks old), and the toxicity tests were conducted for 7 days after the administration of the compound 5.

Series [3] deals with male Crj:CD rats. In words: Acute toxicity, single intravenous administration. The class given is in vivo. The note with it: 7 days. Here is the method:
as §1

Series [4] deals with B16 mouse melanoma cells. In words: Anti-tumor activity against B16 mouse melanoma inoculated subcutaneously. In kind it is in vivo. To be noted: maximum tumor growth inhibition rate during the test period of 20 days, female BDF1 mice, 0.1 mg/kg intravenously on days 1, 5 and 9 after s.c. inoculation; for inhibition in vivo at 0.1 mg/kg: Mus musculus, iv, 480 h, read-out: TGIR (%). Here is the method:
Anti-tumor activity against B16 mouse melanoma inoculated subcutaneously.
Experiment was carried out with the groups of 6 female BDF1 mice (6 weeks old) purchased from Japan SLC Inc., B16 mouse melanoma cells (1 × 10^6 cells/mouse) were inoculated subcutaneously in the rear region of mice, and the sample prepared in a concentration of 0.1 mg/kg was administered intravenously at a dose of 0.2 ml/20g/mouse after 1, 5 and 9 days from inoculation (the day of inoculation being set as 0 day). The volume of the tumor at the hypodermis of the rear region [(longer diameter × shorter diameter × height)/2] was measured on 8, 12, 16 and 20 days after inoculation, and the tumor growth inhibition rate (TGIR) of each sample was determined. TGIR was calculated from the following equation: TGIR (%) = (1 - T/C) × 100 [formula] wherein C represents a tumor volume of the control group and T represents a tumor volume of the group to which the sample was administered.
In this connection, respective test runs were divided by broken lines.

Setting [5] is: 50 h, sample concentration 10^0 µg/ml, cultured for 42 hours, then 8 hours with 3H-TdR.
Setting [6] is: 50 h, sample concentration 10^-1 µg/ml, cultured for 42 hours, then 8 hours with 3H-TdR.
[7] abbreviates: 50 h, sample concentration 10^-2 µg/ml, cultured for 42 hours, then 8 hours with 3H-TdR.
The mark [8] stands for this setting: sample concentration 10^-1 µg/ml, cultured for 4 days.
[9] abbreviates: sample concentration 10^-2 µg/ml, cultured for 4 days.

Like-named read-outs stand apart in the source and are kept apart here. A value given as a limit tells only on which side of the number the result lay.

As for `CCCCCCCCCCCCCCC[C@@H](O)[C@H](CO[C@H]1O[C@H](CO)[C@H](O)[C@H](O)[C@H]1O)NC(=O)CCCCCCCCCCCCC` [Compound 5, (2S,3R)-1-(α-D-galactopyranosyloxy)-2-tetradecanoylamino-3-octadecanol], in series [1] (setting [5]), the activity at 1 µg/mL amounted to 473%. Besides, the activity at 0.1 µg/mL in series [1] (setting [6]) stood at 170%. In series [1] (setting [7]), the activity at 0.01 µg/mL was 153%. In series [2], this molecule yielded an LD50 at 168 h of at least 10 mg/kg. In addition, the lethality result in series [3] (single intravenous dose of 10 mg/kg) was “not lethal”. In addition, the autopsy findings entry in series [3] (single intravenous doses of 0.1, 1.0 and 10 mg/kg) was “no abnormality was observed”. The inhibition in vivo at 0.1 mg/kg in series [4] amounted to 92.1%.
As to `CCCCCCCC/C=C\CCCCCCCC(=O)N[C@@H](CO[C@H]1O[C@H](CO)[C@H](O)[C@H](O)[C@H]1O)[C@H](O)CCCCCCCCCCCCCCC` [Compound 29, (2S,3R)-1-(α-D-galactopyranosyloxy)-2-oleoylamino-3-octadecanol], the activity at 1 µg/mL in series [1] (setting [5]) amounted to 319%. Further, in series [1] (setting [6]), the activity at 0.1 µg/mL was 382%. For the same molecule, in series [1] (setting [7]), the activity at 0.01 µg/mL came to 215%. For the same molecule, in series [4], the inhibition in vivo at 0.1 mg/kg is 79.7%.
For `CCCCCCCCCCCCCCCCCCCCCC[C@H](O)C(=O)N[C@@H](CO[C@H]1O[C@H](CO)[C@H](O)[C@H](O)[C@H]1O)[C@H](O)[C@H](O)CCCCCCCCCCCC(C)C` [Compound 30, (2S,3S,4R)-1-(α-D-galactopyranosyloxy)-2-[(S)-2-hydroxytetracosanoylamino]-16-methyl-3,4-heptadecanediol] the same measures were 385%, 156%, 134% and 57.7%.
The matching figures for `CCCCCCCCCCCCCCCCCCCCCCCC(=O)N[C@@H](CO[C@H]1O[C@H](CO)[C@H](O)[C@H](O)[C@H]1O)[C@H](O)[C@H](O)CCCCCCCCCCCC(C)C` [Compound 31, (2S,3S,4R)-1-(α-D-galactopyranosyloxy)-16-methyl-2-tetracosanoylamino-3,4-heptadecanediol]: 398%, 235%, 163% and 83.4%.
With `CCCCCCCCCCCCCCCCCCCCCCC[C@@H](O)C(=O)N[C@@H](CO[C@H]1O[C@H](CO)[C@H](O)[C@H](O)[C@H]1O)[C@H](O)[C@H](O)CCCCCCCCCCCC(C)CC` (stereo partly drawn) [Compound 34, (2S,3S,4R)-1-(α-D-galactopyranosyloxy)-2-[(R)-2-hydroxypentacosanoylamino]-16-methyl-3,4-octadecanediol], in series [1] (96 h, sample concentration 10^-1 µg/ml, cultured for 4 days), the activity at 0.1 µg/mL is 360%. For the same molecule, in series [1] (96 h, sample concentration 10^-2 µg/ml, cultured for 4 days), the activity at 0.01 µg/mL was 406%. For the same molecule, in series [4], the inhibition in vivo at 0.1 mg/kg was found to be 88.9%.
Regarding `CCCCCCCCCCCCC/C=C/[C@@H](O)[C@H](CO[C@H]1O[C@H](CO)[C@H](O)[C@H](O)[C@H]1O)NC(=O)CCCCCCCCCCCCC` [Compound 35, (2S,3R,4E)-1-(α-D-galactopyranosyloxy)-2-tetradecanoylamino-4-octadecen-3-ol], the activity at 1 µg/mL in series [1] (setting [5]) worked out at 562%. Further, in series [1] (setting [6]), the activity at 0.1 µg/mL came to 261%. Besides, the activity at 0.01 µg/mL in series [1] (setting [7]) stood at 247%. Further, the inhibition in vivo at 0.1 mg/kg in series [4] was found to be 63%.
On to “(2S,3S,4R)-1-(α-D-galactopyranosyloxy)-2-[(R)-2-hydroxytetracosanoylamino]-3,4-heptadecanediol [Compound 22]”, for which the “Uptake of ^3H-TdR (% of control)” value in series [1] (sample concentration 10^0 µg/ml, cultured for 42 hours, then 8 hours with 3H-TdR) was 414 % of control; in series [1] (sample concentration 10^-1 µg/ml, cultured for 42 hours, then 8 hours with 3H-TdR) it was 166 % of control; in series [1] (sample concentration 10^-2 µg/ml, cultured for 42 hours, then 8 hours with 3H-TdR), 149 % of control. For the same molecule, the “TGIR (%)” value in series [4] came out at 82.4%.
Take “(2S,3S,4R)-1-(α-D-galactopyranosyloxy)-2-[(R)-2-hydroxytetracosanoylamino]-3,4-hexadecanediol [Compound 32]”: the “Uptake of ^3H-TdR (% of control)” value in series [1] (setting [8]) is reported as 406 % of control; in series [1] (setting [9]), 426 % of control. In series [4], the “TGIR (%)” value was 73.2%.
As for “(2S,3S,4R)-1-(α-D-galactopyranosyloxy)-2-[(R)-2-hydroxytricosanoylamino]-16-methyl-3,4-heptadecanediol [Compound 33]”, the “Uptake of ^3H-TdR (% of control)” value in series [1] (setting [8]) was 365 % of control; in series [1] (setting [9]), 422 % of control. Moreover, the “TGIR (%)” value in series [4] was determined as 76.5%.

Usually LD50 stands for the dose expected to kill half of the subjects tested. A low value points to greater toxicity.
